Source: ChEMBL document CHEMBL1201862, “PubChem BioAssay data set” (2004)
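48-hour exposure; five concentrations; linearly interpolated endpoints. Here, GI50 denotes the concentration required for 50% inhibition of growth.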 Activity calls are given as the source filed them. No stated cut-off is given here; in the data, active = GI50 up to about 1.1 µM and inactive = higher.

Tests used:
Experiment in all cases: NCI-60 cell line screen, 48 h
SK-MEL-2 = tested on: SK-MEL-2
SNB-75 = tested on: SNB-75
MOLT-4 = tested on: MOLT-4
NCI-H23 = tested on: NCI-H23
RXF 393 = tested on: RXF 393
SF-295 = tested on: SF-295
HOP-62 = tested on: HOP-62
OVCAR-3 = tested on: OVCAR-3
ACHN = tested on: ACHN
UO-31 = tested on: UO-31
BT-549 = tested on: BT-549
CAKI-1 = tested on: CAKI-1
KM12 = tested on: KM12
HCT-116 = tested on: HCT-116
HCC 2998 = tested on: HCC 2998
OVCAR-5 = tested on: OVCAR-5
K562 = tested on: K562
LOX IMVI = tested on: LOX IMVI
TK-10 = tested on: TK-10

Measured: GI50

CC1(C)Oc2ccc3ccc(=O)oc3c2C(O)C1O (centres undefined)
inactive: SK-MEL-2 > 100 µM | SNB-75 38.8 µM | MOLT-4 21.7 µM | NCI-H23 44.2 µM | RXF 393 67.1 µM | SF-295 36.1 µM | HOP-62 36.1 µM | OVCAR-3 37.2 µM | ACHN 44.6 µM | UO-31 27.5 µM | BT-549 22.5 µM | CAKI-1 67.1 µM | KM12 31.9 µM | HCT-116 38.8 µM | HCC 2998 > 100 µM | OVCAR-5 > 100 µM | K562 37.6 µM | LOX IMVI 29.5 µM

O=C1NC(=S)N/C1=C\c1ccc(Br)s1
inactive: SK-MEL-2 99.8 µM | MOLT-4 21.4 µM | NCI-H23 > 100 µM | RXF 393 > 100 µM | SF-295 > 100 µM | HOP-62 > 100 µM | OVCAR-3 71.8 µM | ACHN > 100 µM | UO-31 55.2 µM | BT-549 40.4 µM | CAKI-1 70.6 µM | TK-10 52 µM | KM12 > 100 µM | HCT-116 > 100 µM | HCC 2998 57.8 µM | OVCAR-5 > 100 µM | K562 34.8 µM | LOX IMVI > 100 µM

S=C(NCc1ccccc1)c1nc[nH]c1C(=S)NCc1ccccc1
inactive: SK-MEL-2 9.08 µM | SNB-75 6.12 µM | MOLT-4 4.85 µM | NCI-H23 6.93 µM | RXF 393 11.1 µM | SF-295 4.57 µM | HOP-62 10 µM | OVCAR-3 6 µM | ACHN 2.69 µM | BT-549 13.3 µM | CAKI-1 5.47 µM | TK-10 10.5 µM | KM12 6.07 µM | HCT-116 5.64 µM | HCC 2998 10 µM | OVCAR-5 6.98 µM | K562 4.4 µM | LOX IMVI 4.72 µM

Cc1cc(S(=O)(=O)Nc2nc(N)n(-c3cnc4ccccc4n3)n2)c(S)cc1Cl
inactive: SK-MEL-2 > 100 µM | SNB-75 22.7 µM | RXF 393 99.1 µM | HOP-62 69.5 µM | OVCAR-3 > 100 µM | ACHN > 100 µM | UO-31 > 100 µM | BT-549 16.6 µM | CAKI-1 95.3 µM | TK-10 > 100 µM | KM12 60.4 µM | HCT-116 > 100 µM | HCC 2998 > 100 µM | OVCAR-5 > 100 µM | K562 > 100 µM | LOX IMVI > 100 µM

CCC(C)[C@H](NC(=O)[C@H](Cc1ccccc1)NC(=O)N(CC)c1ccccc1)C(=O)N[C@@H](CC(C)C)C(=O)OC (some centres undefined)
inactive: SK-MEL-2 36.6 µM | SNB-75 70.5 µM | MOLT-4 10.7 µM | NCI-H23 31 µM | RXF 393 74.1 µM | SF-295 59.7 µM | HOP-62 33 µM | OVCAR-3 24.8 µM | ACHN 25.6 µM | UO-31 24.3 µM | BT-549 33.5 µM | CAKI-1 58.5 µM | TK-10 37.9 µM | KM12 22 µM | HCT-116 32.4 µM | HCC 2998 42.2 µM | OVCAR-5 > 100 µM | LOX IMVI 30.9 µM

Cn1ccnc1Oc1ccc(Cl)cc1
inactive: SK-MEL-2 16.4 µM | SNB-75 14.7 µM | MOLT-4 2.38 µM | NCI-H23 17.5 µM | RXF 393 16.9 µM | HOP-62 26.2 µM | ACHN 12.8 µM | UO-31 11.7 µM | BT-549 16.9 µM | TK-10 18.7 µM | HCT-116 12 µM | HCC 2998 4.57 µM | OVCAR-5 15.6 µM | K562 13.7 µM | LOX IMVI 13.2 µM

C[C@@H]1CCC2C(C)(C)C(/C=C\C=O)C3(C)OC213 (some centres undefined)
inactive: SK-MEL-2 42.9 µM | SNB-75 29.1 µM | MOLT-4 31.8 µM | NCI-H23 35.6 µM | RXF 393 33.3 µM | SF-295 35.1 µM | HOP-62 38.9 µM | OVCAR-3 33.4 µM | ACHN 71.4 µM | UO-31 52.5 µM | BT-549 34.8 µM | CAKI-1 > 100 µM | TK-10 72.6 µM | KM12 36.1 µM | HCT-116 27.9 µM | HCC 2998 48.5 µM | OVCAR-5 24.5 µM | K562 33.6 µM

CCOC(=O)c1nnsc1N/N=C\c1ccc([N+](=O)[O-])cc1
inactive: SK-MEL-2 > 100 µM | SNB-75 44.5 µM | MOLT-4 > 100 µM | NCI-H23 > 100 µM | RXF 393 > 100 µM | SF-295 > 100 µM | HOP-62 60 µM | OVCAR-3 > 100 µM | ACHN > 100 µM | UO-31 > 100 µM | BT-549 > 100 µM | TK-10 > 100 µM | KM12 > 100 µM | HCT-116 > 100 µM | HCC 2998 > 100 µM | OVCAR-5 > 100 µM | K562 > 100 µM

COc1cc2c(cc1OC)C(=O)/C(=C/c1ccc(Cl)cc1)CC2
inactive: SK-MEL-2 > 10 µM | MOLT-4 > 10 µM | NCI-H23 > 10 µM | RXF 393 > 10 µM | SF-295 > 10 µM | HOP-62 > 10 µM | OVCAR-3 > 10 µM | ACHN > 10 µM | UO-31 > 10 µM | BT-549 > 10 µM | CAKI-1 > 10 µM | TK-10 > 10 µM | KM12 > 10 µM | HCT-116 > 10 µM | HCC 2998 > 10 µM | OVCAR-5 > 10 µM | K562 > 10 µM | LOX IMVI > 10 µM

N#Cc1c(N)c2c(c(-c3ccccc3)c1-c1ccccc1)C(=O)N(N)C2=O
inactive: SK-MEL-2 > 100 µM | SNB-75 > 100 µM | MOLT-4 70.6 µM | NCI-H23 > 100 µM | RXF 393 58.7 µM | SF-295 89.3 µM | OVCAR-3 > 100 µM | ACHN > 100 µM | UO-31 40.3 µM | BT-549 > 100 µM | CAKI-1 25.2 µM | TK-10 > 100 µM | KM12 > 100 µM | HCT-116 > 100 µM | HCC 2998 > 100 µM | OVCAR-5 > 100 µM | K562 > 100 µM

COC(=O)C1=C(C(=O)OC)SC(=C2c3ccsc3-c3sccc32)S1
inactive: SNB-75 15.9 µM | MOLT-4 39.4 µM | NCI-H23 16.1 µM | RXF 393 18.3 µM | SF-295 17.6 µM | HOP-62 19.7 µM | OVCAR-3 31 µM | ACHN 74.8 µM | UO-31 99.1 µM | BT-549 29.4 µM | CAKI-1 > 100 µM | TK-10 24.5 µM | KM12 40.3 µM | HCT-116 25.9 µM | HCC 2998 40.6 µM | OVCAR-5 > 100 µM | K562 36.2 µM | LOX IMVI > 100 µM

NC(Cc1ccccc1)(C(=O)O)C(=O)O
inactive: SK-MEL-2 > 100 µM | MOLT-4 > 100 µM | NCI-H23 > 100 µM | RXF 393 > 100 µM | SF-295 > 100 µM | HOP-62 > 100 µM | OVCAR-3 > 100 µM | ACHN > 100 µM | UO-31 > 100 µM | BT-549 > 100 µM | CAKI-1 14.8 µM | TK-10 > 100 µM | KM12 > 100 µM | HCT-116 > 100 µM | HCC 2998 > 100 µM | OVCAR-5 > 100 µM | K562 > 100 µM | LOX IMVI > 100 µM
